From patent US8933235B2, “Pyridinedione carboxamide inhibitors of endothelial lipase” (Bristol-Myers Squibb Company, priority 2011, dated 2015)

Molecular target: T1, endothelial lipase (EL) (Homo sapiens, UniProt Q9Y5X9)
T1 construct: Conditioned media obtained from HT-1080 cells, which were transformed by RAGE technology (Athersys) to overexpress endogenous EL; endogenous in cells; conditioned medium used as the enzyme source
T1 sequence (Q9Y5X9 21-500): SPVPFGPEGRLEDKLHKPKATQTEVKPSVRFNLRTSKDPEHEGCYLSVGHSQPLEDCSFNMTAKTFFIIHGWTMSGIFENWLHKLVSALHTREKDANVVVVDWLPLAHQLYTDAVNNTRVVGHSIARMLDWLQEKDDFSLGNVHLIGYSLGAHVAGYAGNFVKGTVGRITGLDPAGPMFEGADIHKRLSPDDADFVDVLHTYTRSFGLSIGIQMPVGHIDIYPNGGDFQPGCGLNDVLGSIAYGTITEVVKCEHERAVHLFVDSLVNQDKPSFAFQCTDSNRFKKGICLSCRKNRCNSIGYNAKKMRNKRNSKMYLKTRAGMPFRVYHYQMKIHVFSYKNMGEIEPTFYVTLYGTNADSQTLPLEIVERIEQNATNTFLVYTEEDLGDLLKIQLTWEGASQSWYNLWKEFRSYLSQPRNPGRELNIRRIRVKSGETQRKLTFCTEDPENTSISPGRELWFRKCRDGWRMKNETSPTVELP
Test: Endothelial lipase (EL) enzymatic assay with fluorescent substrate A10070 in DMPG vesicles
Format: biochemical
Details: conditioned media from HT-1080 cells overexpressing endogenous EL; 20 min preincubation at 37° C.; read-out: HLE_EL_CRC IC50
Procedure: Endothelial lipase activity was measured using a fluorescent substrate, A10070, (Invitrogen, CA) doped into an artificial vesicle containing DMPG (Avanti Polar Lipids) as the excipient. Vesicles were prepared by combining 285 uL of 1 mM DMPG in a 1:1 mixture of MeOH and CHCl3 with 15 uL of 1 mM A10070 in a 1:1 mixture of MeOH and CHCl3. The mixture was dried under nitrogen and resuspended in 150 uL of 50 mM HEPES pH 8.0 buffer containing 100 mM NaCl and 0.2 mM EDTA. The sample was allowed to sit at rt for 15 min and then was sonicated 3×4 mins on ice with a Branson Sonicator using duty cycle 1. This preparation provides vesicles with a mole fraction of 0.05 for the FRET substrate.
The enzymatic assay was measured using white, opaque 96-well half area plates. Each well contained 60 uL of assay buffer (50 mM HEPES pH 8.0, 50 mM NaCl and 1 mM CaCl2) and 2 ul of a DMSO solution containing compound of interest. Conditioned media obtained from HT-1080 cells, which were transformed by RAGE technology (Athersys) to overexpress endogenous EL, was added and the reaction was allowed to incubate for 20 min at 37° C. with gentle agitation. The reaction was started by the addition of 20 uL of a 1:4 dilution of vesicles. The final total reaction volume was 100 uL. The reaction rates were measured on a Gemini plate reader with an excitation wavelength of 488 nm and a emission of 530 nm. Readings were taken every 20 seconds for 10 min with agitation between each reading. The slope of the linear portion of the readout was used to calculate the rate of the reaction.

Structure (SMILES)	IC50 [nM]
COC(=O)c1cccc(OCCCNC(=O)c2cc(-c3cc(F)cc(C(F)(F)F)c3)n(C)c(=O)c2O)c1 [Example 71, methyl 3-(3-(6-(3-fluoro-5-(trifluoromethyl)phenyl)-3-hydroxy-1-methyl-2-oxo-1,2-dihydropyridine-4-carboxamido)propoxy)benzoate]	< 10
COc1ccc(CCNC(=O)c2cc(-c3cc(F)cc(C(F)(F)F)c3)n(C)c(=O)c2O)cc1 [Example 51, 6-(3-fluoro-5-(trifluoromethyl)phenyl)-3-hydroxy-N-(4-methoxyphenethyl)-1-methyl-2-oxo-1,2-dihydropyridine-4-carboxamide]	178
Cn1c(C(F)(F)F)cc(C(=O)NCCCOc2ccccc2C(F)(F)F)c(O)c1=O [Example 89, 3-hydroxy-1-methyl-2-oxo-6-(trifluoromethyl)-N-(3-(2-(trifluoromethyl)phenoxy)propyl)-1,2-dihydropyridine-4-carboxamide]	< 10
Cn1c(-c2ccc(Cl)c(C(F)(F)F)c2)cc(C(=O)NCCCc2ccc(Cl)c(Cl)c2)c(O)c1=O [Example 8, 6-(4-chloro-3-(trifluoromethyl)phenyl)-N-(3-(3,4-dichlorophenyl)propyl)-3-hydroxy-1-methyl-2-oxo-1,2-dihydropyridine-4-carboxamide]	< 10
Cn1c(-c2cc(F)cc(F)c2)cc(C(=O)NCCCc2ccc(Cl)c(Cl)c2)c(O)c1=O [Example 19, N-(3-(3,4-dichlorophenyl)propyl)-6-(3,5-difluorophenyl)-3-hydroxy-1-methyl-2-oxo-1,2-dihydropyridine-4-carboxamide]	< 10
Cn1c(-c2cc(F)cc(C(F)(F)F)c2)cc(C(=O)NCCc2ccc(C(F)(F)F)cc2)c(O)c1=O [Example 60, 6-(3-fluoro-5-(trifluoromethyl)phenyl)-3-hydroxy-1-methyl-2-oxo-N-(4-(trifluoromethyl)phenethyl)-1,2-dihydropyridine-4-carboxamide]	198
Cn1c(-c2cc(F)cc(C(F)(F)F)c2)cc(C(=O)NCCCOc2ccccc2[N+](=O)[O-])c(O)c1=O [Example 81, 6-(3-fluoro-5-(trifluoromethyl)phenyl)-3-hydroxy-1-methyl-N-(3-(2-nitrophenoxy)propyl)-2-oxo-1,2-dihydropyridine-4-carboxamide]	< 10
Cn1c(-c2cc(F)cc(C(F)(F)F)c2)cc(C(=O)NCCCc2ccc(Cl)c(Cl)c2)c(O)c1=O [Example 7, N-(3-(3,4-dichlorophenyl)propyl)-6-(3-fluoro-5-(trifluoromethyl)phenyl)-3-hydroxy-1-methyl-2-oxo-1,2-dihydropyridine-4-carboxamide]	< 10
Cn1c(-c2cc(F)cc(C(F)(F)F)c2)cc(C(=O)NCCCOc2ccc(F)cc2)c(O)c1=O [Example 64, 6-(3-fluoro-5-(trifluoromethyl)phenyl)-N-(3-(4-fluorophenoxy)propyl)-3-hydroxy-1-methyl-2-oxo-1,2-dihydropyridine-4-carboxamide]	< 10
Cn1c(C(F)(F)F)cc(C(=O)NCCCOc2ccccc2Cl)c(O)c1=O [Example 88, N-(3-(2-chlorophenoxy)propyl)-3-hydroxy-1-methyl-2-oxo-6-(trifluoromethyl)-1,2-dihydropyridine-4-carboxamide]	< 10
Cn1c(-c2cccc(C(=O)O)c2)cc(C(=O)NCCCc2ccc(Cl)c(Cl)c2)c(O)c1=O [Example 45, 3-(4-(3-(3,4-dichlorophenyl)propylcarbamoyl)-5-hydroxy-1-methyl-6-oxo-1,6-dihydropyridin-2-yl)benzoic acid]	199
Cn1c(-c2cc(F)cc(C(F)(F)F)c2)cc(C(=O)NCCc2cccc(C(F)(F)F)c2)c(O)c1=O [Example 56, 6-(3-fluoro-5-(trifluoromethyl)phenyl)-3-hydroxy-1-methyl-2-oxo-N-(3-(trifluoromethyl)phenethyl)-1,2-dihydropyridine-4-carboxamide]	216

Second part, the compound after the results:

IC50 [nM]	Structure (SMILES)
172	COc1ccc(CNc2c(C(=O)NCCCc3ccc(Cl)c(Cl)c3)ccn(C)c2=O)cc1 [Example 186, (3-(3,4-dichlorophenyl)propyl)-3-(4-methoxybenzylamino)-1-methyl-2-oxo-1,2-dihydropyridine-4-carboxamide]
3560	Cn1ccc(C(=O)NCc2ccc(C(F)(F)F)cc2)c(O)c1=O [Example 129, 3-hydroxy-1-methyl-2-oxo-N-(4-(trifluoromethyl)benzyl)-1,2-dihydropyridine-4-carboxamide]
6620	COc1ccc(CCNC(=O)c2ccn(C)c(=O)c2O)cc1 [Example 128, 3-hydroxy-N-(4-methoxyphenethyl)-1-methyl-2-oxo-1,2-dihydropyridine-4-carboxamide]
1660	CC(CNC(=O)c1ccn(C)c(=O)c1O)Oc1ccc(F)cc1 (stereo not shown) [Example 137, N-(2-(4-fluorophenoxy)propyl)-3-hydroxy-1-methyl-2-oxo-1,2-dihydropyridine-4-carboxamide]
2200	Cn1ccc(C(=O)NCCc2ccc(C(F)(F)F)cc2)c(O)c1=O [Example 136, 3-hydroxy-1-methyl-2-oxo-N-(4-(trifluoromethyl)phenethyl)-1,2-dihydropyridine-4-carboxamide]
6860	CC(C)C(CCc1ccc(Cl)c(Cl)c1)NC(=O)c1ccn(C)c(=O)c1O (single isomer, unassigned) [Example 114, N-(1-(3,4-dichlorophenyl)-4-methylpentan-3-yl)-3-hydroxy-1-methyl-2-oxo-1,2-dihydropyridine-4-carboxamide]
200	CC(C)CNc1c(C(=O)NCCCc2ccc(Cl)c(Cl)c2)ccn(C)c1=O [Example 188, N-(3-(3,4-dichlorophenyl)propyl)-3-(isobutylamino)-1-methyl-2-oxo-1,2-dihydropyridine-4-carboxamide]
210	Cn1ccc(C(=O)NCCCOc2ccc(Cl)c(Cl)c2)c(O)c1=O [Example 194, N-(3-(3,4-dichlorophenoxy)propyl)-3-hydroxy-1-methyl-2-oxo-1,2-dihydropyridine-4-carboxamide]
210	CC(C)OCCNc1c(C(=O)NCCCc2ccc(Cl)c(Cl)c2)ccn(C)c1=O [Example 189, N-(3-(3,4-dichlorophenyl)propyl)-3-(2-isopropoxyethylamino)-1-methyl-2-oxo-1,2-dihydropyridine-4-carboxamide]
5820	COc1c(C(=O)NCCCc2ccc(Cl)c(Cl)c2)ccn(C)c1=O [Example 113, N-(3-(3,4-dichlorophenyl)propyl)-3-methoxy-1-methyl-2-oxo-1,2-dihydropyridine-4-carboxamide]
182	COC(=O)c1cccc(OCCCNC(=O)c2ccn(C)c(=O)c2O)c1 [Example 198, methyl 3-(3-(3-hydroxy-1-methyl-2-oxo-1,2-dihydropyridine-4-carboxamido)propoxy)benzoate]
2460	CC(CCc1ccccc1)NC(=O)c1ccn(C)c(=O)c1O (stereo not shown) [Example 126, 3-hydroxy-1-methyl-2-oxo-N-(4-phenylbutan-2-yl)-1,2-dihydropyridine-4-carboxamide]
2700	Cn1ccc(C(=O)NC(CCc2ccc(Cl)c(Cl)c2)C2CC2)c(O)c1=O (single isomer, unassigned) [Example 118, N-(1-cyclopropyl-3-(3,4-dichlorophenyl)propyl)-3-hydroxy-1-methyl-2-oxo-1,2-dihydropyridine-4-carboxamide]
1790	CC(C)C(CCc1ccc(Cl)c(Cl)c1)NC(=O)c1ccn(C)c(=O)c1O (single isomer, unassigned) [Example 115, N-(1-(3,4-dichlorophenyl)-4-methylpentan-3-yl)-3-hydroxy-1-methyl-2-oxo-1,2-dihydropyridine-4-carboxamide]
8660	Cn1ccc(C(=O)NCCc2ccccc2Cl)c(O)c1=O [Example 127, N-(2-chlorophenethyl)-3-hydroxy-1-methyl-2-oxo-1,2-dihydropyridine-4-carboxamide]
1620	Cn1ccc(C(=O)NC(CCc2ccc(Cl)c(Cl)c2)C2CC2)c(O)c1=O (single isomer, unassigned) [Example 119, N-(1-cyclopropyl-3-(3,4-dichlorophenyl)propyl)-3-hydroxy-1-methyl-2-oxo-1,2-dihydropyridine-4-carboxamide]
